Literature values as cited in patent US9370632B2, “Nasal treatment delivery device for mixed carbon dioxide and saline” (CLOVER HILL HEALTHCARE, INC., priority 2012, dated 2016).

Tested on: subjects with SAR, nasal allergen challenge (grass or ragweed allergen)

For `O=C=O` [CO(2), carbon dioxide], the ipsilateral secretion weights (20-second exposure to CO(2) 30 minutes before allergen challenge, compared with no treatment) is given as “numerically reduced”, the sneezes (20-second exposure to CO(2) 30 minutes before allergen challenge, compared with no treatment, 12 subjects with SAR, p=0.05) is given as “significant reduction” and the “bilateral runny nose symptoms” value (20-second exposure to CO(2) 30 minutes before allergen challenge, compared with no treatment, p=0.01) is given as “significant reduction”. For the same compound, the “contralateral secretion weights (reflex secretory response, primary outcome)” value (20-second exposure to CO(2) 30 minutes before allergen challenge, compared with no treatment, p=0.04) was “significant reduction”, the “histamine levels in ipsilateral nasal secretions” value (after pretreatment with CO(2), increased significantly with sham treatment) was “did not increase” and the “sensation reported by subjects during exposure” value (during 20-second intranasal exposure to CO(2)) was “transient burning sensation”.
